In the NIST ThermoML archive (doi:10.1016/j.jct.2011.02.021):
± gives the expanded uncertainty stated by the source.

Assay: molar enthalpy of vaporization or sublimation
Settings: 298.15 K; Crystal; drop microcalorimetry

With `Cc1cc(=O)cc(C)o1` [2,6-dimethyl-γ-pyrone] the molar enthalpy was 20.7 ± 0.717 kcal/mol.
In the case of `CCc1occc(=O)c1O` [2-ethyl-3-hydroxy-4H-pyran-4-one], the molar enthalpy is reported as 21.8 ± 0.956 kcal/mol.
